Data as given in BindingDB's records for doi:10.1016/j.bmc.2009.03.061 (Gsk, 2009).

How the values were obtained:
[1] = target: cAMP-specific 3',5'-cyclic phosphodiesterase 4B (Homo sapiens, UniProt Q07343); experiment: Enzyme Inhibition Assay; details: pH 7.5; 23 °C
Method: (§1) Inhibition of PDE4 is measured using a luminescence-coupled assay system developed by Cambrex. This assay system couples the formation of AMP, derived from PDE4-catalyzyed hydrolysis of cAMP, to the formation of ATP. The ATP is then used as a substrate for Luciferase and results in light as a signal output. […] This assay is used in a quenched assay format, where PDE4 enzyme and cAMP substrate are added sequentially to a 384 well assay plate (Greiner784075) pre-stamped with compound at the desired concentration. The reaction is incubated at room temperature for 1 h, and then is quenched by the addition of enzyme stop solution and then the light signal is generated by the addition of detection reagent. […] For inhibition curves, compounds were diluted using a 3-fold serial dilution and tested at 11 concentrations. Curves were analysed as describe above using ActivityBase and XLfit , and results were expressed as pIC50 values.

[2] = target: cAMP-specific 3',5'-cyclic phosphodiesterase 4D (Homo sapiens, UniProt Q08499); experiment: Enzyme Inhibition Assay; details: pH 7.5; 23 °C
Chain of cAMP-specific 3',5'-cyclic phosphodiesterase 4D (Q08499 whole entry): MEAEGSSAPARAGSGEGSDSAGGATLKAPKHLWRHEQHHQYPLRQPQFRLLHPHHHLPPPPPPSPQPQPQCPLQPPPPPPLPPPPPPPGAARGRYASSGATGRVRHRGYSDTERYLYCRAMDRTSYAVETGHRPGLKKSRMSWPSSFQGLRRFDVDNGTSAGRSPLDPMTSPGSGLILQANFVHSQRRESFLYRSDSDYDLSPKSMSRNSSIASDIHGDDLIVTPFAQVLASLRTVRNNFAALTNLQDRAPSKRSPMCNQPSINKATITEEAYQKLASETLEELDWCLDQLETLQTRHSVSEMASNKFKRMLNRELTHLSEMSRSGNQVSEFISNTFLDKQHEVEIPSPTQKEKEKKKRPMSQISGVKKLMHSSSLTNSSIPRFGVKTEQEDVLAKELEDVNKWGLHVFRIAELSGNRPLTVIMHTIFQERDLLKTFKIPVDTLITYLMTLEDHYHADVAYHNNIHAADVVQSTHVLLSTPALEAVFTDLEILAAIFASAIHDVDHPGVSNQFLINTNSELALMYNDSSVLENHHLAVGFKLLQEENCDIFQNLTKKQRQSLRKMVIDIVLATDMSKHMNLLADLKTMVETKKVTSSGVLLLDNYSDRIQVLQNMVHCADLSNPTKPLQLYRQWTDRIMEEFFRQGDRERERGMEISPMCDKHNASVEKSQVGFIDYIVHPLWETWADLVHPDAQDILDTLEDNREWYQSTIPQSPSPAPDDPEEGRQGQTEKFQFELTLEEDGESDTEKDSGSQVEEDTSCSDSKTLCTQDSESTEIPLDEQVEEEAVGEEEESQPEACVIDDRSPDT
Method: as §1

Chain of cAMP-specific 3',5'-cyclic phosphodiesterase 4B (Q07343 whole entry): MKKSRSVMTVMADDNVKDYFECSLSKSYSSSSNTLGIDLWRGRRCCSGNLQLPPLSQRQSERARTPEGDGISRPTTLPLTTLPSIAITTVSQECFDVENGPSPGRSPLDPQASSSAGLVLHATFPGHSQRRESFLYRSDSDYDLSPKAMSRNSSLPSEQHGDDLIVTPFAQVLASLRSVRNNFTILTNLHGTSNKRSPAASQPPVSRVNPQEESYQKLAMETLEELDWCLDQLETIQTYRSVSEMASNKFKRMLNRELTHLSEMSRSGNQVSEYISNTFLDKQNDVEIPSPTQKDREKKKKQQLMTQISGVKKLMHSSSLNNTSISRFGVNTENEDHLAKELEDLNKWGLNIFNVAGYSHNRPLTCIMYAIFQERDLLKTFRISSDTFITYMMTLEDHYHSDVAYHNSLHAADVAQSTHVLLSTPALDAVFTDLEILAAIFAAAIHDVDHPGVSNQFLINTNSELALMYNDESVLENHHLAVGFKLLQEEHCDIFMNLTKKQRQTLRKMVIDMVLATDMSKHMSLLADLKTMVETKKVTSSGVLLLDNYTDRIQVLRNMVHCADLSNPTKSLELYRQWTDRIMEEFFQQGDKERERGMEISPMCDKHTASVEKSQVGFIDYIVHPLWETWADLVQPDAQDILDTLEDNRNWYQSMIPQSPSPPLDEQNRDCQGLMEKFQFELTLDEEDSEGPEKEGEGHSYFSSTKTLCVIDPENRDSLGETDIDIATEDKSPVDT

Row | IC50 [1] | IC50 [2] | Structure (SMILES)
1 | 5.01 µM | 2.51 µM | Cc1cccc(C)c1C(=O)C1CCCc2sc(NC(=O)c3ccccc3[N+](=O)[O-])c(C(N)=O)c21 (centres undefined) [tetrahydrobenzothiophene (THBT), 18]
2 | 0.1 µM | 2.51 µM | CCCC1CCc2c(sc(NC(=O)c3ccccc3[N+](=O)[O-])c2C(N)=O)C1 (centres undefined) [tetrahydrobenzothiophene (THBT), 24]
